Earlier results, collected in PubChem BioAssay AID1259409 (Chemical Carcinogenesis Research Information System (CCRIS), 2018).

Tested on: rodent chemically induced tumor inhibition, incidence and multiplicity
Test: CCRIS tumor inhibitor studies

Question: What does the source list for `CC(C)C[C@H]1C(=O)N2CCC[C@H]2[C@]2(O)O[C@](NC(=O)[C@@H]3C=C4c5cccc6[nH]c(Br)c(c56)C[C@H]4N(C)C3)(C(C)C)C(=O)N12`?
Answer: tumour outcome (control, treated, inhibition, significance) (Carcinogen: 7,12-DIMETHYLBENZ[A]ANTHRACENE, 57-97-6, Dose [Inhibitor]: 0.4 MG/D FROM 90 TO 150 D OF AGE BEGINNING 30 D POST CARCINOGEN TREATMENT (STUDY DURATION: 9 MO AFTER DMBA TREATMENT), Route [Inhibitor]: SUBCUTANEOUS, Species: RAT, Strain/Sex: LONG-EVANS/FEMALE, Target Tissue: Type of Lesion: MAMMARY GLAND: CARCINOMA, Dose [Carcinogen]: 20 MG ONCE AT 60 D OF AGE, Promoter: NONE USED): 20%, 38%, -90%, not significant; tumour outcome (control, treated, inhibition, significance) (Carcinogen: 7,12-DIMETHYLBENZ[A]ANTHRACENE, 57-97-6, Dose [Inhibitor]: 0.4 MG/D FROM 90 TO 150 D OF AGE BEGINNING 30 D POST CARCINOGEN TREATMENT (STUDY DURATION: 9 MO AFTER DMBA TREATMENT), Route [Inhibitor]: SUBCUTANEOUS, Species: RAT, Strain/Sex: LONG-EVANS/FEMALE, Target Tissue: Type of Lesion: MAMMARY GLAND: FIBROADENOMA, Dose [Carcinogen]: 20 MG ONCE AT 60 D OF AGE, Promoter: NONE USED): 16%, 0%, 100%, not significant; tumour outcome (control, treated, inhibition, significance) (Carcinogen: 7,12-DIMETHYLBENZ[A]ANTHRACENE, 57-97-6, Dose [Inhibitor]: 0.4 MG/D FROM 90 TO 150 D OF AGE BEGINNING 30 D POST CARCINOGEN TREATMENT (STUDY DURATION: 9 MO AFTER DMBA TREATMENT), Route [Inhibitor]: SUBCUTANEOUS, Species: RAT, Strain/Sex: SPRAGUE-DAWLEY/FEMALE, Target Tissue: Type of Lesion: MAMMARY GLAND: CARCINOMA, Dose [Carcinogen]: 5 MG ONCE AT 60 D OF AGE, Promoter: NONE USED): 85%, 52%, 39%, p<0.05; tumour outcome (control, treated, inhibition, significance) (Carcinogen: 7,12-DIMETHYLBENZ[A]ANTHRACENE, 57-97-6, Dose [Inhibitor]: 0.4 MG/D FROM 90 TO 150 D OF AGE BEGINNING 30 D POST CARCINOGEN TREATMENT (STUDY DURATION: 9 MO AFTER DMBA TREATMENT), Route [Inhibitor]: SUBCUTANEOUS, Species: RAT, Strain/Sex: SPRAGUE-DAWLEY/FEMALE, Target Tissue: Type of Lesion: MAMMARY GLAND: FIBROADENOMA, Dose [Carcinogen]: 5 MG ONCE AT 60 D OF AGE, Promoter: NONE USED): 22%, 10%, 54%, not significant; tumour outcome (control, treated, inhibition, significance) (Carcinogen: 7,12-DIMETHYLBENZ[A]ANTHRACENE, 57-97-6, Dose [Inhibitor]: 0.4 MG/D FROM 90 TO 150 D OF AGE BEGINNING 30 D POST CARCINOGEN TREATMENT (STUDY DURATION: 12 MO AFTER DMBA TREATMENT), Route [Inhibitor]: SUBCUTANEOUS, Species: RAT, Strain/Sex: SPRAGUE-DAWLEY/FEMALE, Target Tissue: Type of Lesion: MAMMARY GLAND: CARCINOMA, Dose [Carcinogen]: 1.25 MG ONCE AT 60 D OF AGE, Promoter: NONE USED): 15%, 10%, 33%, not significant; tumour outcome (control, treated, inhibition, significance) (Carcinogen: 7,12-DIMETHYLBENZ[A]ANTHRACENE, 57-97-6, Dose [Inhibitor]: 0.4 MG/D FROM 90 TO 150 D OF AGE BEGINNING 30 D POST CARCINOGEN TREATMENT (STUDY DURATION: 12 MO AFTER DMBA TREATMENT), Route [Inhibitor]: SUBCUTANEOUS, Species: RAT, Strain/Sex: SPRAGUE-DAWLEY/FEMALE, Target Tissue: Type of Lesion: MAMMARY GLAND: FIBROADENOMA, Dose [Carcinogen]: 1.25 MG ONCE AT 60 D OF AGE, Promoter: NONE USED): 73%, 65%, 11%, not significant; tumour outcome (control, treated, inhibition, significance) (Carcinogen: 7,12-DIMETHYLBENZ[A]ANTHRACENE, 57-97-6, Dose [Inhibitor]: 0.4 MG/D FROM 90 TO 150 D OF AGE BEGINNING POST CARCINOGEN TREATMENT (STUDY DURATION: 6 MO AFTER DMBA TREATMENT), Route [Inhibitor]: SUBCUTANEOUS, Species: RAT, Strain/Sex: SPRAGUE-DAWLEY/FEMALE, Target Tissue: Type of Lesion: MAMMARY GLAND: CARCINOMA, Dose [Carcinogen]: 20 MG ONCE AT 60 D OF AGE, Promoter: NONE USED): 96%, 87%, 9%, p<0.05; tumour outcome (control, treated, inhibition, significance) (Carcinogen: 7,12-DIMETHYLBENZ[A]ANTHRACENE, 57-97-6, Dose [Inhibitor]: 0.4 MG/D FROM 93 TO 160 D OF AGE BEGINNING 30 D POST CARCINOGEN TREATMENT (STUDY DURATION: 9 MO AFTER DMBA TREATMENT), Route [Inhibitor]: SUBCUTANEOUS, Species: RAT, Strain/Sex: LEWIS/FEMALE, Target Tissue: Type of Lesion: MAMMARY GLAND: CARCINOMA, Dose [Carcinogen]: 10 MG AT 56 AND 63 D OF AGE, Promoter: NONE USED): 94%, 55%, 41%, p<0.05; tumour outcome (control, treated, inhibition, significance) (Carcinogen: 7,12-DIMETHYLBENZ[A]ANTHRACENE, 57-97-6, Dose [Inhibitor]: 6 MG/KG 6/WK FOR 80 OR 100 D BEGINNING 1 D POST CARCINOGEN DOSE (STUDY DURATION: 245 D), Route [Inhibitor]: INTRAPERITONEAL, Species: RAT, Strain/Sex: CFE/FEMALE, Target Tissue: Type of Lesion: MAMMARY GLAND: NOT SPECIFIED, Dose [Carcinogen]: 2.5 MG 1/D FOR 2 D, Promoter: NONE USED): 17/18 (94%), 16/19 (84%), 11%, not significant; tumour outcome (control, treated, inhibition, significance) (Carcinogen: 17-BETA-ESTRADIOL, 50-28-2, Dose [Inhibitor]: 0.1 MG, DAILY WITH CARCINOGEN AT 1 MO OF AGE FOR 22 MO (STUDY DURATION: 22 MO), Route [Inhibitor]: SUBCUTANEOUS, Species: MOUSE, Strain/Sex: C3H/FEMALE, Target Tissue: Type of Lesion: MAMMARY GLAND: TUMOR, Dose [Carcinogen]: 0.5 MG/L IN DRINKING WATER DAILY CONCURRENTLY WITH INHIBITOR FOR 22 MO, Promoter: NONE USED): 27/99 (27%), 9/100 (9%), 67%, p<0.05; tumour outcome (control, treated, inhibition, significance) (Carcinogen: 17BETA-ESTRADIOL, 50-28-2, Dose [Inhibitor]: 0.1 MG 1/D FOR 19 MO BEGINNING CONCURRENTLY WITH CARCINOGEN DOSE (STUDY DURATION: 19 MO), Route [Inhibitor]: SUBCUTANEOUS, Species: MOUSE, Strain/Sex: C3H/FEMALE, Target Tissue: Type of Lesion: MAMMARY GLAND: CARCINOMA, Dose [Carcinogen]: 0.5 MG/L IN DRINKING WATER BEGINNING AT 30 D OF AGE FOR 19 MO, Promoter: NONE USED): 27/99 (27%), 9/100 (9%), 67%, p<0.001; tumour outcome (control, treated, inhibition, significance) (Carcinogen: AZOXYMETHANE, 25843-45-2, Dose [Inhibitor]: 0, 2 MG/KG BW SUSPENDED IN 1 ML/MG OLIVE OIL 1/2 D FOR STUDY DURATION (STUDY DURATION: 30 WK), Route [Inhibitor]: SUBCUTANEOUS, Species: RAT, Strain/Sex: WISTAR/MALE, Target Tissue: Type of Lesion: COLON: TUMOR, Dose [Carcinogen]: 7.4 MG/KG IN 0.9% NACL 1/WK FOR 10 WK): 9/17 (53%), 8/20 (40%), 25%, not significant; tumour outcome (control, treated, inhibition, significance) (Carcinogen: DIETHYLSTILBESTROL, 56-53-1, Dose [Inhibitor]: 0.5 MG 5/WK FOR 9 MO CONCURRENTLY WITH CARCINOGEN DOSE (90 MG TOTAL DOSE) (STUDY DURATION: 9 MO), Route [Inhibitor]: SUBCUTANEOUS, Species: HAMSTER, Strain/Sex: SYRIAN/MALE, Target Tissue: Type of Lesion: KIDNEY: EPITHELIAL NEOPLASM, Dose [Carcinogen]: 0.6 MG 3/WK FOR 9 MO (65 MG TOTAL DOSE), Promoter: NONE USED): 10/12 (83%), 7/12 (58%), 30%, not calculated; tumour outcome (control, treated, inhibition, significance) (Carcinogen: DIMETHYLBENZ[A]ANTHRACENE, 57-97-6, Dose [Inhibitor]: 1 MG ONCE ON D 2 OF DIESTRUS AND ONCE AT PROESTRUS (STUDY DURATION: 26 WK), Route [Inhibitor]: INTRAPERITONEAL, Species: RAT, Strain/Sex: SPRAGUE-DAWLEY/FEMALE, Target Tissue: Type of Lesion: MAMMARY GLAND: NOT SPECIFIED, Dose [Carcinogen]: 5 MG ONCE AT 50 D OF AGE 30 HR POST 1ST AGENT DOSE, Promoter: NONE USED): 97%, 84%, 13%, not significant
